Source: patent US12173320B2, “Production of red blood cells and platelets from stem cells” (BOSTON MEDICAL CENTER CORPORATION, priority 2012, dated 2024)

Columns and labels:
[1] = test system: AhR (CYP1B1 target gene expression) in MEPs; assay: Quantitative RT-PCR of AhR target gene CYP1B1 in MEPs; format: cell-based, human
Experimental: (§1) 6-formylindolo[3,2-b]carbazole (FICZ), an AHR small molecule agonist, and CH223191, an AHR competitive inhibitor were used for these assays. CH223191 was added to mesoderm cultures at Day 6 at 5 μM (lx) and 2.504 (0.5×). 0.2 μM FICZ was added to cultures at Day 7 and media was added daily. DMSO was used as a vehicle control.
(§2) RNA was extracted using the RNeasy kit (Qiagen) according to the manufacturer's instructions and DNase treated using the DNA-free kit (Ambion AM1906). Reverse transcription into cDNA was performed using the High Capacity cDNA Reverse Transcription Kit (Applied Biosystems 4368814). Quantitative (real time) PCR amplification of cDNA was performed using Taqman probes for AHR (Hs00169233 ml), CYP1B1 (Hs002382916 sl), HBA (Hs00361191 gl), HBB (Hs00758889 sl), HBG (Hs01629437 sl), vWF (Hs00169795 ml), PF4 (Hs00427220 gl), NF-E2 (Hs00232351 ml) and CD62P (Hs00927900 ml) and run on the Applied Biosystems StepOne machine. Relative gene expression was normalized to B-actin (Hs99999903 ml).
To characterize AhR expression and functionality in both undifferentiated iPSCs and directly differentiated MEPs, AhR protein levels were determined via Western blot in these populations. […] To test this hypothesis, the ability of FICZ to induce a prototypic AhR-target gene, CYPIB1, in iPSCs or, as a positive control, MEPs was assessed by quantitative RT-PCR.

day 30 MEPs = assay: EDU incorporation proliferation assay; format: cell-based, human; details: versus untreated cells
Description: In a subsequent experiment, […] (EDU) incorporation in day 30 MEPs was used to compare proliferation of FICZ-treated MEPS and control untreated MEPs, EDU is a labeling chemical that intercolates into the DNA of a cell and allows for the explicit tracking of proliferation.

iPSC-derived MEPs = assay: Growth / expansion of MEP cultures (manual counts, trypan blue exclusion); format: cell-based, human
Experimental: Plots were gated first in FSC vs. SSC and then from that population for PI ‘ and PE Hoechst’. […] (B) Representative phase contrast images of MEP population+FICZ. (C) Growth curve of day 15 MEPs+/−[…] FICZ. Cells were counted manually using trypan blue exclusion. Graphical data and the associated statistics are the result of three independent experiments per group.
High passage iPSCs were plated onto matrigel coated 6-well plates in iPSC media conditioned on iMEFs for 24 hours and supplemented with 2 ng/ml Rho Kinase Inhibitor and 20 ng/ml bFGF. After two days, iPSC media was replaced with Mesoderm DO-1 media: RPMI (Invitrogen A1049101) supplemented with 5 ng/mlhBMP-4 (R&D 314-BP-010), 50 ng/ml hVEGF (R&D 293-VE-010), 25 ng/mlhWnt3a (R&D 287-TC-500) and 10% KOSR. At Day 2, Mesoderm DO-1 media was replaced with Mesoderm D2 media: RPMI supplemented with 5 ng/ml hBMP-4, 50 ng/mlhVEGF, 20 ng/ml bFGF and 10% KOSR. Mesoderm D3 media consisted of the following: StemPro 34 (Invitrogen 10639011), 5 ng/ml hBMP-4, 50 ng/mlhVEGF, and 20 ng/ml bFGF. Mesoderm media for days 4 and 5 consisted of: StemPro 34, 15 ng/mlhVEGF, and 5 ng/ml bFGF. Day 6 mesoderm media: 74% IMDM (Invitrogen 12330061), 24% Hams F12 (Mediatech 10-080-CV), 1% B27 supplement (Invitrogen 12587-010), 0.5% N2-supplement (Invitrogen 17502-048), 0.5% BSA (Sigma A3059), 50 ng/ml hVEGF, 100 ng/mlbFGF, 100 ng/ml hSCF (R&D 255-SC-010), 25 ng/ml hFlt3 Ligand (R&D 308-FKN-005). Day 7 media: 74% IMDM, 24% Hams F12, 1% B27 supplement, 0.5% N2-supplement, 0.5% BSA, 50 ng/ml hVEGF, 100 ng/ml bFGF, 100 ng/ml hSCF, 25 ng/ml hFlt3 Ligand, 50 ng/ml hTPO (Genentech G140BT), 10 ng/ml IL-6 (R&D 206-IL-010), 0.5 U/ml hEPOgen and 0.2 uM 6-formylindolo[3,2-b]carbazole (FICZ) (Santa Cruz SC300019). After Day 7, 0.5 ml of Day 7 media was added to the culture daily without aspirating the media from the previous day. All base media mixes included 2 mM L-Glutamine (Invitrogen 25030081), 4×10^-4M Monothioglycerol (Sigma M1753), 100 ug/ml Primocin, and 50 ug/ml Ascorbic Acid. Cells in suspension were collected and assayed at Days 10-13 or split for long-term culture.
as §1

[2] = test system: AhR (CYP1B1 target gene expression); assay: In vivo CYP1B1 target gene expression in liver and spleen (quantitative RT-PCR); set-up: species or system mouse; details: after 3 weeks of FICZ
Experimental: as §2
C57B16 mice were injected daily intraperitoneally with FICZ suspended in vegetable oil using a weekly dose escalation scheme (Week 1: 1 mg/kg; Week 2: 2 mg/kg; Week 3: 4 mg/kg). Blood cell counts were assayed by Hemavet quantification of peripheral blood bleeds, at all 3 time points (Day 7, 14, and 21). Following the 3 week time point, mice were sacrificed and livers and spleens harvested for quantitative RT-PCR analyses.
To determine if FICZ treatment or whole animals would affect RBC or platelet production, C57B16 mice were injected daily intraperitoneally with FICZ suspended in vegetable oil using a weekly dose escalation scheme (Week 1: 1 mg/kg; Week 2: 2 mg/kg; Week 3: 4 mg/kg). […]

In the case of `O=Cc1c2c(cc3c1=Nc1ccccc1-3)=Nc1ccccc1-2` [FICZ, 6-formylindolo[3,2-b]carbazole], the CYP1B1 expression ([1]; Day 15 MEPs, with vs. without FICZ, normalized to β-actin) is reported as “statistically significant increases”, the “responsiveness to AhR agonist (CYP1B1 RT-PCR)” value ([1]; MEP, normalized to GAPDH) is reported as “responsive” and the “proliferation by EDU incorporation” value (day 30 MEPs) is reported as “far more proliferative than untreated cells”. For the same compound, the “expansion of MEPs (cell number)” value (iPSC-derived MEPs; after addition of FICZ to cultures) was “from a few thousand to a billion cells in a few weeks”, the “growth of MEPs” value (iPSC-derived MEPs; day 15 MEPs +/-0.2 μm FICZ, 2 week growth period, versus untreated) was “logarithmic expansion” and the “time cells could be cultured” value (iPSC-derived MEPs; iPSC-derived MEPs under AhR agonism) was greater than 120 days. For the same compound, the “CYP1B1 target gene expression in liver” value [2] was “robust upregulation” and the “CYP1B1 target gene expression in spleen” value [2] was “robust upregulation”.
